The target in one assay is T1, IL-6 receptor (Homo sapiens, UniProt P08887).
T1 construct: host or cells: human patients (endogenous receptor)
T1 sequence (P08887 20-468): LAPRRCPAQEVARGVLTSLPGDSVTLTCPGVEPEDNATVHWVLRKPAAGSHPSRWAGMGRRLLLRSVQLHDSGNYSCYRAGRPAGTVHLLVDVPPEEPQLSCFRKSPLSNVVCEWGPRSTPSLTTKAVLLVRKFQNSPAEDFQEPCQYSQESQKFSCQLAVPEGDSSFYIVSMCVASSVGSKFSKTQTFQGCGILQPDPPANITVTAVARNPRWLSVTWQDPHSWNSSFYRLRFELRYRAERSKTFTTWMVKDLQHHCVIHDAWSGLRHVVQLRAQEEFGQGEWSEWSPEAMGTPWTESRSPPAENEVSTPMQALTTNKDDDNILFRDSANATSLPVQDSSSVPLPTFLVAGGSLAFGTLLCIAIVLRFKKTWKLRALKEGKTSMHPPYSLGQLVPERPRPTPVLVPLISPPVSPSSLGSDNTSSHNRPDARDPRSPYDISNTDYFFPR
As to conditions: cited from earlier work.

The subject of assay [1] is T cell transfer model of colitis, Rag -/- mice. Briefly: T cell transfer model of colitis (IBD). Format: in vivo, mouse. As to conditions: 300 ng ascr #7 i.p. every 3 days, day 14 to 28. The method, then: A T cell transfer model of colitis where 10^6CD4+ T cells were transferred to adult Rag −/− mice was used, and either saline or 300 ng ascr #7 were administered via intraperitoneal injection every 3 days between day 14 and day 28. On day 28, the mice were euthanized and colon analysis was performed. n=3 mice per group. […] The normal mouse colon is long, skinny, and has discrete fecal pellets. The diseased mouse colon, with IBD, has a shortened, dilated colon, with diarrhea instead of discrete fecal pellets.

The test system of assay [2] is ovalbumin model of murine asthma (C57BL/6 mice). Briefly: Ovalbumin model of murine asthma. It is filed as in vivo, mouse. The method, then:
Adult C57BL/6 mice were sensitized by administering 2 ug OVA (Sigma-Aldrich) and 1 mg alum (Thermo) with 50 ng ascr #7 or saline, via intraperitoneal injection, on Day 0 and 14. On day 24, the mice were challenged with intranasal administration of saline containing 100 μg OVA, under isoflurane anesthesia. Histologic sections were stained with H&E or PAS to score for eosinophilia, goblet cell metaplasia, and airway hyper-reactivity. Mice were also placed in a computer controlled small animal ventilator (SCIREQ) to score for airway hyper-reactivity following methacholine challenge. […] Animals with asthma have higher resistance of flow, which would be represented as higher “RL” values in FIG. 3B. […] Lungs were collected, postmortem, and then sectioned and stained to show the presence of eosinophils and mucus. […] In FIG. 3C, the asthmatic mouse lung, here labeled “Control” has a large number of mucus and eosinophils that surround the bronchioles and occupy the alveolar space; wherein the thick barriers would prohibit oxygen from easily diffusing.

Assay [3] deals with IL-6 secretion, bone marrow-derived mouse dendritic cells. Briefly: IL-6 secretion by TNF-α stimulated bone marrow dendritic cells (ELISA). It is filed as cell-based. As to conditions: different concentrations of ascr #7. As to the method:
(§1) Bone marrow was extracted from femurs of C57BL/6 mice (6-12 weeks of age). These mice were euthanized by CO2 inhalation and their femurs were removed. After removing the remaining flesh from the bone, they were cut at the metaphysis. Bone marrow was flushed out using a syringe filled with RPMI. The extracted marrow was further broken down by resuspension with syringe. The mixture was centrifuged and the pellet was re-suspended in RPMI. […] 20 ng of GM-CSF was added to each well. At day 3, and every 3 days thereafter, the media was replaced. Cells were used for experiments between day 7-9.
(§2) Bone marrow dendritic cells were collected between day 7-9 of culture. Cells were washed twice and counted. Ascr #7 in water or RPMI were placed in corresponding wells, and are allowed to dry. 10^6 cells were then plated in each well in a 24 well culture plate. Cells were left to incubate with ascr #7 for 5 minutes. Following the brief incubation, different TNFα was added to the wells. These bone marrow dendritic cells were then cultured at 37° C. for 18-72 hours. Cells were collected via the pellet generated by centrifuge. The supernatant was also preserved. EBioscience ELISA kits was used to determine the concentration of different cytokines present in each well.
Background: In an ELISA, binding on a coated surface is turned into a signal by an enzyme label.

Assay [4] relates to IL-1β secretion, bone marrow-derived mouse dendritic cells. As to the kind of experiment: IL-1β secretion by TNF-α stimulated bone marrow dendritic cells (ELISA). It is filed as cell-based. As to conditions: different concentrations of ascr #7. As to the method:
as §1, §2

Assay [5] deals with NOD/ShiLtJ mouse model of Type 1 Diabetes. Briefly: NOD/ShiLtJ mouse model of Type 1 Diabetes. As to conditions: 100 ng ascr #7 i.p. three times a week. It is filed as in vivo. The method, then:
The NOD/ShiLtJ (Jackson Laboratories) mouse model of Type 1 Diabetes was used These mice typically develop hyperglycemia around 17-18 weeks of life. Either saline or 100 ng ascr #7 was administered three times a week via intraperitoneal injection. Blood glucose levels were determined in the same mouse over time, via the collected of tail vein blood (as shown in FIG. 4A) at multiple time points. […] 8 mice were injected with saline and 8 mice were injected with ascr #7, as described above.

Where [6] appears, read: ovalbumin model, 50 ng ascr #7 i.p.

This is an account of results in US11077151B2, “Ascaroside treatment of autoimmune and inflammatory diseases” (California Institute of Technology, priority 2016, dated 2021).

For “Tocilizumab: a humanized anti-IL-6 receptor antibody”, the “clinical activity of atopic dermatitis” value in the assay with IL-6 receptor (3 patients with severe atopic dermatitis, Navarini et al. 2011) is on record as “decreased clinical activity”. Further, the “relapse rates, neuropathic pain and general fatigue, neuromyelitis optica” value with IL-6 receptor (after one year of treatment, Araki et al. 2014) is given as “decreased”. In addition, the “manifestations of eosinophilic fasciitis” value in the assay with IL-6 receptor (at 6 months, Espinoza et al. 2015) is “remission of both articular and cutaneous manifestations”. In the assay with IL-6 receptor (one patient, Berti et al. 2015), the “disease remission, severe multisystemic microscopic polyangiitis” value is “complete and sustained disease remission”. Moreover, in the assay with IL-6 receptor (patients, Mesquida et al. 2014), the treatment of uveitis entry was “effective”. Further, the “inflammatory response and quality of life measures, Cogan's syndrome” value with IL-6 receptor (person, relapsed after prednisone, Shibuya et al. 2013) is “successfully improved”.
In the case of `C[C@H](CC/C=C/C(=O)O)O[C@@H]1O[C@@H](C)[C@H](O)C[C@H]1O` [ascr #7], in assay [1], the “development of abnormal lumen dilation” value was “markedly reduces”, the “development of colon shortening” value is recorded as “markedly reduces” and the development of diarrhea entry is listed as “markedly reduces”. Also, the “colon appearance on day 28” value in assay [1] (FIG. 5) was “normal appearing colon, which is long, skinny, and contains discrete fecal pellets”. Also, the “lung histology (boundaries between bronchioles and alveolar space; eosinophils and mucus)” value in assay [2] (50 ng ascr #7 i.p. Day 0 and 14, stained lung sections, FIG. 3C) is “thin boundaries between the bronchioles and the alveolar space, comparable to the normal mice”. Also, in assay [2] (50 ng ascr #7 i.p. Day 0 and 14 with OVA/alum, methacholine challenge, FIG. 3B), the “resistance of air flow (RL)” value is listed as “low resistance of air flow, with comparable levels to normal mice”. Besides, in assay [2] (setting [6]), the “development of airway hyper-reactivity” value was “reduces”, the development of eosinophilia result is reported as “reduces” and the “development of goblet cell metaplasia” value was “reduces”. Also, the IL-6 level result in assay [3] (dendritic cells not stimulated with TNF-α, FIG. 1 left) is given as “very low levels of IL-6”. Moreover, the “secreted IL-6 level” value in assay [3] (dendritic cells stimulated with TNF-α, FIG. 1 right) is “reduces these levels significantly”. Besides, the IL-1β level entry in assay [4] (dendritic cells not stimulated with TNF-α, FIG. 2 left) is “very low levels of IL-1β”. For the same compound, the “secreted IL-1β level” value in assay [4] (dendritic cells stimulated with TNF-α, FIG. 2 right) is given as “reduces these levels significantly”. For the same compound, the “blood glucose levels, individual mice” value in assay [5] (throughout 18 weeks, FIG. 4B) is given as “significantly reduced blood glucose levels”. In addition, the “blood glucose levels, group average vs untreated group” value in assay [5] (week 18, FIG. 4C) is “significantly lower blood glucose levels”. For the same compound, the conversion to hyperglycemia entry in assay [5] (NOD mice) is recorded as “delays conversion to hyperglycemia”.
